Test system: SYO-1 tumor spheroids, viability % test/control
Assay: Anticancer human tumor SYO-1 cell line growth inhibition;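 note: spheroids exposed to agents for 7 days before viability read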;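 for viability, T/C: 100% = DMSO vehicle control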
Settings: spheroids with HUVEC and MSC; for IC50: curve of first compound; for viability, T/C: stronger effect = lower value
How it was run: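 Complex tumor spheroids combined malignant cells with endothelial cells and mesenchymal stem cells. DNA-damaging drugs and DNA repair inhibitors were tested alone and in combination, at half-log dilutions down from clinical Cmax (top 10 microM if Cmax unknown), 0.25% DMSO final.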

[1] = second compound 1 µM, first compound 0.00949 µM
[2] = second compound 1 µM, first compound 0.03 µM
[3] = second compound 1 µM, first compound 0.0949 µM
[4] = second compound 1 µM, first compound 0.3 µM
[5] = second compound 1 µM, first compound 0.949 µM
[6] = second compound 1 µM, first compound 3 µM
[7] = second compound 3.16 µM, first compound 0.00949 µM
[8] = second compound 3.16 µM, first compound 0.03 µM
[9] = second compound 3.16 µM, first compound 0.0949 µM
[10] = second compound 3.16 µM, first compound 0.3 µM
[11] = second compound 3.16 µM, first compound 0.949 µM
[12] = second compound 3.16 µM, first compound 3 µM
[13] = second compound 10 µM, first compound 0.00949 µM
[14] = second compound 10 µM, first compound 0.03 µM
[15] = second compound 10 µM, first compound 0.0949 µM
[16] = second compound 10 µM, first compound 0.3 µM
[17] = second compound 10 µM, first compound 0.949 µM
[18] = second compound 10 µM, first compound 3 µM
[19] = second compound 31.6 µM, first compound 0.00949 µM
[20] = second compound 31.6 µM, first compound 0.03 µM
[21] = second compound 31.6 µM, first compound 0.0949 µM
[22] = second compound 31.6 µM, first compound 0.3 µM
[23] = second compound 31.6 µM, first compound 0.949 µM
[24] = second compound 31.6 µM, first compound 3 µM
[25] = second compound 100 µM, first compound 0.00949 µM
[26] = second compound 100 µM, first compound 0.03 µM
[27] = second compound 100 µM, first compound 0.0949 µM
[28] = second compound 100 µM, first compound 0.3 µM
[29] = second compound 100 µM, first compound 0.949 µM
[30] = second compound 100 µM, first compound 3 µM

SMILES | IC50 (second compound 1 µM) | IC50 (second compound 3.16 µM) | IC50 (second compound 10 µM) | IC50 (second compound 31.6 µM) | IC50 (second compound 100 µM) | viability, T/C [3] | viability, T/C [4] | viability, T/C [5] | viability, T/C [6] | viability, T/C [9] | viability, T/C [10] | viability, T/C [11] | viability, T/C [12] | viability, T/C [15] | viability, T/C [16] | viability, T/C [17] | viability, T/C [18] | viability, T/C [21] | viability, T/C [22] | viability, T/C [23] | other results
CNCc1ccc(-c2cc(-c3nc(-c4ccc(S(=O)(=O)C(C)C)cc4)cnc3N)on2)cc1 + Cn1nnc2c(C(N)=O)ncn2c1=O | 145 nM | 163 nM | 147 nM | 80.8 nM | 47.6 nM | 77.6% | 2.58% | 0.22% | 0.09% | 91.6% | 2.75% | 0.12% | 0.09% | 79.6% | 1.77% | 0.13% | 0.1% | 40.9% | 1.76% | 0.23% | viability, T/C [1]: 105%; viability, T/C [2]: 98.7%; viability, T/C [7]: 105%; viability, T/C [8]: 103%; viability, T/C [13]: 107%; viability, T/C [14]: 99%; viability, T/C [19]: 111%; viability, T/C [20]: 106%; viability, T/C [24]: 0.11%; viability, T/C [25]: 107%; viability, T/C [26]: 77.2%; viability, T/C [27]: 9.17%; viability, T/C [28]: 1.95%; viability, T/C [29]: 0.23%; viability, T/C [30]: 0.18%
Cn1ncnc1[C@H]1c2n[nH]c(=O)c3cc(F)cc(c23)N[C@@H]1c1ccc(F)cc1 + Cn1nnc2c(C(N)=O)ncn2c1=O | 16.3 nM | 12.8 nM | < 9.49 nM | < 9.49 nM | < 9.49 nM | 4.52% | 2.53% | 1.69% | 1.94% | 2.83% | 2.28% | 2.09% | 1.5% | 2.35% | 1.79% | 1.63% | 2.1% | 2.35% | 1.86% | 2% | viability, T/C [1]: 79.6%; viability, T/C [2]: 16.8%; viability, T/C [7]: 65%; viability, T/C [8]: 7.02%; viability, T/C [13]: 4.61%; viability, T/C [14]: 2.33%; viability, T/C [19]: 2.52%; viability, T/C [20]: 2.5%; viability, T/C [24]: 1.4%; viability, T/C [25]: 2.64%; viability, T/C [26]: 2.03%; viability, T/C [27]: 2.06%; viability, T/C [28]: 2.04%; viability, T/C [29]: 1.62%; viability, T/C [30]: 1.71%
O=C(c1cc(Cc2n[nH]c(=O)c3ccccc23)ccc1F)N1CCN(C(=O)C2CC2)CC1 + Cn1nnc2c(C(N)=O)ncn2c1=O | 1660 nM | 1620 nM | 677 nM | 155 nM | < 94.9 nM | 103% | 96.2% | 88.9% | 9.23% | 103% | 94.3% | 88.4% | 6.01% | 103% | 94.6% | 31.6% | 2.83% | 76.8% | 13.5% | 3.35% | viability, T/C (second compound 1 µM, first compound 9.49 µM): 2.81%; viability, T/C (second compound 1 µM, first compound 30 µM): 1.98%; viability, T/C (second compound 3.16 µM, first compound 9.49 µM): 2.08%; viability, T/C (second compound 3.16 µM, first compound 30 µM): 1.94%; viability, T/C (second compound 10 µM, first compound 9.49 µM): 1.83%; viability, T/C (second compound 10 µM, first compound 30 µM): 1.82%; viability, T/C [24]: 2.28%; viability, T/C (second compound 31.6 µM, first compound 9.49 µM): 2.18%; viability, T/C (second compound 31.6 µM, first compound 30 µM): 1.77%; viability, T/C [27]: 3.25%; viability, T/C [28]: 2.69%; viability, T/C [29]: 2.42%; viability, T/C [30]: 2.49%; viability, T/C (second compound 100 µM, first compound 9.49 µM): 1.81%; viability, T/C (second compound 100 µM, first compound 30 µM): 1.75%
